Data set [1] deals with conditioned avoidance (avoidance failure). The experiment in a line: Conditioned Avoidance Test by Shuttle Box. The class given is in vivo, rats of Wistar strain (male). Particulars: for ED50: read-out: ED50 and Its Confidence Limit; for Potency Ratio: conditioned avoidance ED50, relative to haloperidol = 1.0. The text has this: Use was made of a shuttle box consisted of two chambers divided by a plate with a square hole. The floor of each chamber was made of steel-rod grid which can be charged electrically. The whole apparatus was maintained in a sound proof room. The training schedule was as follows. Each trial was initiated by supplying the sound of buzzer as conditioned stimulus for 3 seconds. Unless the rats escaped to another compartment […] thereafter, the grid floor was electrified for 4 seconds as unconditioned stimulus. Each rat was trained for more than 2 weeks with a daily session of 30 trials at an interval of 60 seconds.
Six rats per group were subjected to 10 consecutive trails 1, 2, 4, 6, 8 and 10 hours after medication, respectively. In this case, a 3-second interval was taken between the termination of the conditioned stimulus and the onset of the unconditioned one. ED50 values at each time were calculated from the average percentages of avoidance failure.

Data set [2] has as its system stereotyped behavior induced with methamphetamine hydrochloride. The experiment in a line: Anti-methamphetamine Test in Rats. Particulars: for ED50: Rattus norvegicus, po, read-out: ED50 and Its Confidence Limit; for Potency Ratio: anti-methamphetamine ED50, relative to haloperidol = 1.0; for suppressing methamphetamine-induced stereotypy: rat, oral, in words.
Data set [3] deals with gnawing (stereotyped behavior induced by apomorphine). In words: Anti-apomorphine Test in Rats. The note with it: for ED50: read-out: ED50 and Its Confidence Limit; for Potency Ratio: anti-apomorphine ED50, relative to haloperidol = 1.0. Type of data set: in vivo, rats of Wistar strain (male). Here is the method: Six male rats of Wistar strain weighing 120 to 200 g were used at each dosage level. […] The effect against apomorphine was taken as positive when gnawing behavior was not noticed during the observation period of 1 minute. ED50 was calculated from the dose inhibition percet relationship.

Data set [4] concerns catalepsy. The experiment in a line: Catalepsy Test in Rats. The note with it: for Potency Ratio: catalepsy ED50, relative to haloperidol = 1.0; for dissociation between the dose effective against methamphetamine and the dose inducing catalepsy / catalepsy: rat, oral, in words; for dissociation between the dose effective against methamphetamine and the dose inducing catalepsy: comparison of anti-methamphetamine and catalepsy tests.
Experimental: (§1) After medication, both legs of the rats were put on a horizontal metal bar, 12 cm apart from the floor, and the rats were forced to stand on hind legs. Observation of rat behavior was made 1, 2, 4, 6, 8, 10, 12 and 24 hours later.

The next data set is described as follows: Catalepsy Test in Rats. The note with it: rat, in vivo, po.
The next data set in a line: in vivo. The note with it: rat, po.
Data set [5] relates to catalepsy. The note with it: rat, in vivo.
Experimental: as §1
Setting [6] is: rat, oral, apomorphine 1.25 mg/kg i.v., time of maximum effect 2 hrs.

Entries after “also recorded” stand apart in the source; their conditions may differ. Like-named read-outs stand apart in the source and are kept apart here.

Experimental for in vivo: as §1

As usually defined, the ED50 is the midpoint of the dose-response relation. Turning to `O=C(CCCN1CCC(n2c(O)nc3ccccc32)CC1)c1ccc(F)cc1` [Benperidol, reference compound], the ED50 was found to be 0.81 mg/kg in data set [1] (Rattus norvegicus, po, 4 h); 0.44 mg/kg in data set [2] (2 h); 0.62 mg/kg in data set [3] (Rattus norvegicus, po, 1 h). The “Potency Ratio” value in data set [1] came to 0.7; in data set [2], 1.1; in data set [3], 1.1; with catalepsy [4], 0.95. The “dissociation between the dose effective against methamphetamine and the dose inducing catalepsy” value (“dissociation between the dose effective” for short) in the data set with catalepsy [4] is “exhibit both the effects at almost the same dose level; also recorded: exhibit simultaneously both desired and undesired side-effects to almost the same extent at their effective dosages”. Moreover, it took a dose of 0.92 mg/kg to reach the 50% effect level in “Catalepsy Test in Rats” (ED50 at 8 h).

As for `O=C(CCCN1CCC(n2c(S)nc3ccccc32)CC1)c1ccc(F)cc1` [Compound A, 1-[1-(3-(4-fluorobenzoyl)propyl)-4-piperidyl]-2-mercaptobenzimidazole], the “Potency Ratio” value in data set [1] was found to be 8.8; in data set [2], 8.9; in data set [3], 7.5; in the data set with catalepsy [4], 3.5. Besides, the ED50 in data set [1] (shuttle box, rat, oral, time of maximum effect 6 hrs) was determined as 0.06 mg/kg; in data set [2] (2 h), 0.054 mg/kg; in data set [3] (setting [6]) it was 0.095 mg/kg. Moreover, the suppressing methamphetamine-induced stereotypy result in data set [2] is recorded as “highly effective in suppressing methamphetamine-induced stereotypy”. Besides, the “dissociation between the dose effective” value in the data set on catalepsy [4] was “marked dissociation”. For the same molecule, in the data set on catalepsy [4], the catalepsy result is “produce catalepsy only in higher doses”. This molecule yielded an ED50 at 10 h in “Catalepsy Test in Rats” of 0.25 mg/kg.

Take `CSc1nc2ccccc2n1C1CCN(CCCC(=O)c2ccc(F)cc2)CC1` [Compound B, 1-[1-(3-(4-fluorobenzoyl)propyl)-4-piperidyl]-2-methylmercaptobenzimidazole]: the “Potency Ratio” value in data set [1] came to 1.6; in data set [2] it was 2.8; in data set [3] it was 1.7; with catalepsy [4] it was 1.3. For the same molecule, the ED50 in data set [1] (shuttle box, rat, oral, time of maximum effect 4 hrs) was found to be 0.34 mg/kg; in data set [2] (1 h) it was 0.17 mg/kg; in data set [3] (setting [6]), 0.41 mg/kg. In data set [2], the suppressing methamphetamine-induced stereotypy entry was “highly effective in suppressing methamphetamine-induced stereotypy”. The “dissociation between the dose effective” value in the data set on catalepsy [4] was “marked dissociation”. The catalepsy entry with catalepsy [4] is listed as “produce catalepsy only in higher doses”. This molecule yielded an ED50 at 10 h in “Catalepsy Test in Rats” of 0.68 mg/kg.

In “in vivo”, `O=C(CCCN1CCC(O)(c2ccc(Cl)cc2)CC1)c1ccc(F)cc1` [Haloperidol, reference compound] returned an ED50 at 8 h of 0.88 mg/kg. The ED50 in data set [1] (Rattus norvegicus, po, 4 h) was found to be 0.53 mg/kg; in data set [2] (1 h), 0.48 mg/kg; in data set [3] (Rattus norvegicus, po, 2 h) it was 0.71 mg/kg. In addition, the “dissociation between the dose effective” value with catalepsy [4] was “exhibit both the effects at almost the same dose level; also recorded: exhibit simultaneously both desired and undesired side-effects to almost the same extent at their effective dosages”. Moreover, the “Potency Ratio” value with catalepsy [5] is 1.0.

The values are drawn from US3963727A, “1,2 Disubstituted benzimidazole derivatives” (Daiichi Seiyaku Co., Ltd., priority 1975, dated 1976).
